Key:
soybean = assay: Test B pre/postemergence soybean; assay type: in vivo, Glycine max
Procedure, shortened: (§1)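 Test chemicals in a non-phytotoxic solvent mixture with surfactant were sprayed preemergence onto planted seeds and postemergence onto plants 2 to 18 cm tall (1- to 4-leaf stage). After twelve to sixteen days in a greenhouse, injury was visually rated against untreated controls from 0 (no effect) to 10 (complete control).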

morningglory = assay: Test B pre/postemergence morningglory; assay type: in vivo, Ipomoea hederacea
Procedure, shortened: as §1

pigweed = assay: Test B pre/postemergence pigweed; assay type: in vivo, Amaranthus retroflexus
Procedure, shortened: as §1

corn = assay: Test B pre/postemergence corn; assay type: in vivo, Zea mays
Procedure, shortened: as §1

wheat = assay: Test B pre/postemergence wheat; assay type: in vivo, Triticum aestivum
Procedure, shortened: as §1

blackgrass = assay: Test B pre/postemergence blackgrass; assay type: in vivo, Alopecurus myosuroides
Procedure, shortened: as §1

wild oat = assay: Test B pre/postemergence wild oat; assay type: in vivo, Avena fatua
Procedure, shortened: as §1

cocklebur = assay: Test B pre/postemergence cocklebur; assay type: in vivo, Xanthium strumarium
Procedure, shortened: as §1

surinam grass = assay: Test B pre/postemergence surinam grass; assay type: in vivo, Brachiaria decumbens
Procedure, shortened: as §1

velvetleaf = assay: Test B pre/postemergence velvetleaf; assay type: in vivo, Abutilon theophrasti
Procedure, shortened: as §1

rape = assay: Test B pre/postemergence rape; assay type: in vivo, Brassica napus
Procedure, shortened: as §1

crabgrass = assay: Test B pre/postemergence crabgrass; assay type: in vivo, Digitaria sanguinalis
Procedure, shortened: as §1

sugar beet = assay: Test B pre/postemergence sugar beet; assay type: in vivo, Beta vulgaris
Procedure, shortened: as §1

giant foxtail = assay: Test B pre/postemergence giant foxtail; assay type: in vivo, Setaria faberii
Procedure, shortened: as §1

bedstraw = assay: Test B pre/postemergence bedstraw; assay type: in vivo, Galium aparine
Procedure, shortened: as §1

purple nutsedge = assay: Test B pre/postemergence purple nutsedge; assay type: in vivo, Cyperus rotundus
Procedure, shortened: as §1

[1] = Postemergence, Rate 62 g/ha, scale of 0 to 10, 0 is no effect, 10 is complete control
[2] = Postemergence, Rate 500 g/ha, scale of 0 to 10 where 0 is no effect and 10 is complete control
[3] = Preemergence, Rate 62 g/ha, scale 0 to 10 (0 no effect, 10 complete control)
[4] = Preemergence, Rate 125 g/ha, scale 0 to 10, 0 is no effect, 10 is complete control
[5] = Preemergence, Rate 500 g/ha, scale of 0 to 10 where 0 is no effect and 10 is complete control
[6] = Rate 250 g/ha, Postemergence, scale of 0 to 10 where 0 is no effect and 10 is complete control
[7] = Postemergence, Rate 125 g/ha, scale 0 to 10, 0 is no effect, 10 is complete control
[8] = Preemergence, Rate 62 g/ha, scale of 0 to 10 where 0 is no effect and 10 is complete control
[9] = Preemergence, Rate 250 g/ha, scale 0 (no effect) to 10 (complete control)
[10] = Rate 500 g/ha, Preemergence, scale 0 to 10 (0 no effect, 10 complete control)

CCOCn1c(=O)on(C(=O)N(c2ccccc2)C(C)C)c1=O [Compound 563]
Soybean plant response rating (soybean; [1]): 5
Plant response rating, Soybean (soybean; [2]): 5
Soybean plant response rating (soybean; [3]): 0
Soybean plant response rating (soybean; [4]): 0
Soybean plant response rating (0 to 10 scale) (soybean; Preemergence, Rate 250 g/ha): 3
Soybean plant response rating (soybean; [5]): 6
Plant response rating, Soybean (soybean; [6]): 3
Morningglory plant response rating (morningglory; [1]): 4
Morningglory plant response rating (morningglory; [7]): 6
Plant response rating, Morningglory (morningglory; [2]): 10
Morningglory plant response rating (morningglory; [3]): 0
Morningglory plant response rating (morningglory; [4]): 0
Morningglory plant response rating (0 to 10 scale) (morningglory; Preemergence, Rate 250 g/ha): 0
Morningglory plant response rating (morningglory; [5]): 3
Plant response rating, Morningglory (morningglory; [6]): 10
Redroot pigweed plant response rating (pigweed; [1]): 0
Plant response rating, Redroot pigweed (pigweed; [2]): 5
Redroot pigweed plant response rating (pigweed; [3]): 4
Redroot pigweed plant response rating (pigweed; [4]): 9
Redroot pigweed plant response rating (0 to 10 scale) (pigweed; Preemergence, Rate 250 g/ha): 9
Redroot pigweed plant response rating (pigweed; [5]): 9
Plant response rating, Redroot pigweed (pigweed; [6]): 5
Corn plant response rating (corn; [1]): 0
Corn plant response rating (corn; [7]): 0
Plant response rating, Corn (corn; [2]): 8
Corn plant response rating (corn; [3]): 0
Corn plant response rating (corn; [4]): 0
Corn plant response rating (0 to 10 scale) (corn; Preemergence, Rate 250 g/ha): 4
Corn plant response rating (corn; [5]): 9
Plant response rating, Corn (corn; [6]): 4
Wheat plant response rating (wheat; [1]): 0
Plant response rating, Wheat (wheat; [2]): 0
Wheat plant response rating (wheat; [3]): 3
Wheat plant response rating (wheat; [4]): 8
Wheat plant response rating (0 to 10 scale) (wheat; Preemergence, Rate 250 g/ha): 9
Wheat plant response rating (wheat; [5]): 10
Plant response rating, Wheat (wheat; [6]): 0
Blackgrass plant response rating (blackgrass; [1]): 0
Blackgrass plant response rating (blackgrass; [7]): 0
Plant response rating, Blackgrass (blackgrass; [2]): 4
Blackgrass plant response rating (blackgrass; [3]): 2
Blackgrass plant response rating (blackgrass; [4]): 8
Blackgrass plant response rating (0 to 10 scale) (blackgrass; Preemergence, Rate 250 g/ha): 9
Blackgrass plant response rating (blackgrass; [5]): 9
Plant response rating, Blackgrass (blackgrass; [6]): 4
Wild oats plant response rating (wild oat; [1]): 0
Plant response rating, Wild oats (wild oat; [2]): 0
Wild oats plant response rating (wild oat; [3]): 2
Wild oats plant response rating (wild oat; [4]): 9
Wild oats plant response rating (0 to 10 scale) (wild oat; Preemergence, Rate 250 g/ha): 9
Wild oats plant response rating (wild oat; [5]): 10
Plant response rating, Wild oats (wild oat; [6]): 0
Cocklebur plant response rating (cocklebur; [1]): 0
Cocklebur plant response rating (cocklebur; [7]): 0
Plant response rating, Cocklebur (cocklebur; [2]): 2
Cocklebur plant response rating (cocklebur; [3]): 0
Cocklebur plant response rating (cocklebur; [4]): 0
Cocklebur plant response rating (0 to 10 scale) (cocklebur; Preemergence, Rate 250 g/ha): 0
Cocklebur plant response rating (cocklebur; [5]): 2
Plant response rating, Cocklebur (cocklebur; [6]): 0
B. signalgrass plant response rating (surinam grass; [1]): 0
B. signalgrass plant response rating (surinam grass; [7]): 4
Plant response rating, B. signalgrass (surinam grass; [2]): 7
B. signalgrass plant response rating (surinam grass; [3]): 3
B. signalgrass plant response rating (surinam grass; [4]): 9
B. signalgrass plant response rating (0 to 10 scale, 0 is no effect, 10 is complete control) (surinam grass; Preemergence, Rate 250 g/ha): 9
B. signalgrass plant response rating (surinam grass; [5]): 10
Plant response rating, B. signalgrass (surinam grass; [6]): 5
Velvetleaf plant response rating (velvetleaf; [1]): 0
Plant response rating, Velvetleaf (velvetleaf; [2]): 4
Velvetleaf plant response rating (velvetleaf; [3]): 3
Velvetleaf plant response rating (velvetleaf; [4]): 3
Velvetleaf plant response rating (0 to 10 scale) (velvetleaf; Preemergence, Rate 250 g/ha): 6
Velvetleaf plant response rating (velvetleaf; [5]): 7
Plant response rating, Velvetleaf (velvetleaf; [6]): 2
Rape plant response rating (rape; [1]): 0
Rape plant response rating (rape; [7]): 0
Plant response rating, Rape (rape; [2]): 5
Rape plant response rating (rape; [3]): 0
Rape plant response rating (rape; [4]): 4
Rape plant response rating (0 to 10 scale) (rape; Preemergence, Rate 250 g/ha): 9
Rape plant response rating (rape; [5]): 9
Plant response rating, Rape (rape; [6]): 5
Crabgrass plant response rating (crabgrass; [1]): 9
Crabgrass plant response rating (crabgrass; [7]): 9
Plant response rating, Crabgrass (crabgrass; [2]): 9
Crabgrass plant response rating (crabgrass; [3]): 8
Crabgrass plant response rating (crabgrass; [4]): 9
Crabgrass plant response rating (0 to 10 scale) (crabgrass; Preemergence, Rate 250 g/ha): 10
Crabgrass plant response rating (crabgrass; [5]): 9
Plant response rating, Crabgrass (crabgrass; [6]): 8
Sugarbeets plant response rating (sugar beet; [1]): 0
Plant response rating, Sugarbeets (sugar beet; [2]): 0
Sugarbeets plant response rating (sugar beet; [3]): 2
Sugarbeets plant response rating (sugar beet; [4]): 3
Sugarbeets plant response rating (0 to 10 scale) (sugar beet; Preemergence, Rate 250 g/ha): 3
Sugarbeets plant response rating (sugar beet; [5]): 4
Plant response rating, Sugarbeets (sugar beet; [6]): 0
Giant foxtail plant response rating (giant foxtail; [1]): 6
Giant foxtail plant response rating (giant foxtail; [7]): 8
Plant response rating, Giant foxtail (giant foxtail; [2]): 9
Giant foxtail plant response rating (giant foxtail; [3]): 9
Giant foxtail plant response rating (giant foxtail; [4]): 9
Giant foxtail plant response rating (0 to 10 scale) (giant foxtail; Preemergence, Rate 250 g/ha): 10
Giant foxtail plant response rating (giant foxtail; [5]): 10
Plant response rating, Giant foxtail (giant foxtail; [6]): 8
Bedstraw plant response rating (bedstraw; [1]): 0
Bedstraw plant response rating (bedstraw; [7]): 0
Plant response rating, Bedstraw (bedstraw; [2]): 0
Bedstraw plant response rating (bedstraw; [3]): 0
Bedstraw plant response rating (bedstraw; [4]): 0
Bedstraw plant response rating (0 to 10 scale) (bedstraw; Preemergence, Rate 250 g/ha): 0
Bedstraw plant response rating (bedstraw; [5]): 0
Nutsedge plant response rating (purple nutsedge; [1]): 0
Nutsedge plant response rating (purple nutsedge; [7]): 0
Nutsedge plant response rating (purple nutsedge; [3]): 0
Nutsedge plant response rating (purple nutsedge; [4]): 0
Nutsedge plant response rating (0 to 10 scale) (purple nutsedge; Preemergence, Rate 250 g/ha): 0
Plant response rating, Nutsedge (purple nutsedge; [6]): 0

CC(C)N(C(=O)n1oc(=O)n(C(C)C2CCC2)c1=O)c1ccccc1 (centres unmarked) [Compound 717]
Soybean plant response rating (soybean; [8]): 0
Soybean plant response rating (soybean; [9]): 0
Soybean plant response rating (soybean; [10]): 0
Morningglory plant response rating (morningglory; [8]): 0
Morningglory plant response rating (morningglory; [9]): 0
Morningglory plant response rating (morningglory; [10]): 0
Redroot pigweed plant response rating (pigweed; [8]): 6
Redroot pigweed plant response rating (pigweed; [9]): 8
Redroot pigweed plant response rating (pigweed; [10]): 8
Corn plant response rating (corn; [8]): 0
Corn plant response rating (corn; [9]): 3
Corn plant response rating (corn; [10]): 9
Wheat plant response rating (wheat; [8]): 0
Wheat plant response rating (wheat; [9]): 0
Wheat plant response rating (wheat; [10]): 0
Blackgrass plant response rating (blackgrass; [8]): 9
Blackgrass plant response rating (blackgrass; [9]): 10
Blackgrass plant response rating (blackgrass; [10]): 10
Wild oats plant response rating (wild oat; [8]): 9
Wild oats plant response rating (wild oat; [9]): 9
Wild oats plant response rating (wild oat; [10]): 10
Cocklebur plant response rating (cocklebur; [8]): 0
Cocklebur plant response rating (cocklebur; [9]): 0
Cocklebur plant response rating (cocklebur; [10]): 0
B. signalgrass plant response rating (surinam grass; [8]): 4
B. signalgrass plant response rating (surinam grass; [9]): 7
B. signalgrass plant response rating (surinam grass; [10]): 7
Velvetleaf plant response rating (velvetleaf; [8]): 0
Velvetleaf plant response rating (velvetleaf; [9]): 0
Velvetleaf plant response rating (velvetleaf; [10]): 0
Rape plant response rating (rape; [8]): 0
Rape plant response rating (rape; [9]): 0
Rape plant response rating (rape; [10]): 4
Crabgrass plant response rating (crabgrass; [8]): 10
Crabgrass plant response rating (crabgrass; [9]): 10
Crabgrass plant response rating (crabgrass; [10]): 10
Sugarbeets plant response rating (sugar beet; [8]): 0
Sugarbeets plant response rating (sugar beet; [9]): 2
Sugarbeets plant response rating (sugar beet; [10]): 3
Giant foxtail plant response rating (giant foxtail; [8]): 10
Giant foxtail plant response rating (giant foxtail; [9]): 10
Giant foxtail plant response rating (giant foxtail; [10]): 10
Bedstraw plant response rating (bedstraw; [8]): 0
Bedstraw plant response rating (bedstraw; [9]): 0
Bedstraw plant response rating (bedstraw; [10]): 0
Nutsedge plant response rating (purple nutsedge; [8]): 0
Nutsedge plant response rating (purple nutsedge; [9]): 0
Nutsedge plant response rating (purple nutsedge; [10]): 0

Source: US6737383B1, “Herbicidal oxadiazolidines” (priority 1999, dated 2004)
